Counter-ions that a name gives are not always drawn.
Key:
[1] = in comparison to a 15 mg dose of hydrocodone
[2] = after oral administration; cited from earlier work
[3] = cited from earlier work
[4] = Example 4: six-way crossover study, naltrexone (12% w/w) on oxycodone-induced euphoria, with pulse oximetry (SpO2); type: in vivo, human
Description: As a safety component of this study, pulse oximetry was monitored routinely to monitor for signs and symptoms of oxycodone-induced respiratory depression.

[5] = cited from earlier work; remark: listed apart in the source
[6] = patients; versus equivalent dose of morphine; cited from earlier work

Work on `COc1ccc2c3c1O[C@H]1[C@@H](O)C=C[C@H]4[C@@H](C2)N(C)CC[C@@]341` [codeine] yielded an equianalgesic calculated dose [1] of 90.0 mg.
For `C[C@H]1[C@H]2Cc3ccc(O)cc3[C@]1(C)CCN2CC1CC1` [cyclazocine], the duration of action [2] is listed as ~24 h.
In the case of `COc1ccc2c3c1OC1C(=O)CC[C@H]4[C@@H](C2)N(C)CC[C@]314` (stereo partly shown) [hydrocodone, 4,5-epoxy-3-methoxy-17-methylmorphinan-6-one], the equianalgesic calculated dose [1] is reported as 15.0 mg.
`CN1CC[C@]23CCCC[C@H]2[C@H]1Cc1ccc(O)cc13` [levorphanol] showed an equianalgesic calculated dose [1] of 1.8 mg.
Work on `CCC(=O)C(CC(C)N(C)C)(c1ccccc1)c1ccccc1` (stereo not shown) [methadone] yielded an equianalgesic calculated dose [1] of 9.0 mg.
In the case of `O=C1CC[C@@]2(O)[C@H]3Cc4ccc(O)c5c4[C@@]2(CCN3CC2CC2)[C@H]1O5` [naltrexone HCl, naltrexone hydrochloride], the solubility in water [3] is listed as “about 100 mg/cc”.
In the case of `O=C1CC[C@@]2(O)[C@H]3Cc4ccc(O)c5c4[C@@]2(CCN3CC2CC2)[C@H]1O5` [naltrexone], the “effect on euphoric effects of oxycodone” value ([4]; oral oxycodone 60 mg + naltrexone 7.2 mg (12%)) is listed as “abating the euphoric effects of oxycodone 60 mg”, the “effect on respiratory depressant effects of oxycodone (SpO2, pulse oximetry)” value ([4]; oral oxycodone 60 mg + naltrexone 7.2 mg (12%) vs oxycodone 60 mg and placebo, opioid-experienced adult subjects) is listed as “attenuated the respiratory depressant effects of oxycodone” and the duration of action [2] is listed as ~24 h. For the same compound, the “time of absorption following oral administration (rapidly absorbed)” value [5] was ≤ 1 h and the oral bioavailability ([5]; oral administration) was 5-40%.
For `COc1ccc2c3c1O[C@H]1C(=O)CC[C@@]4(O)[C@@H](C2)N(C)CC[C@]314` [oxycodone], the equianalgesic calculated dose [1] is listed as 13.5 mg and the “extent and speed of onset of induced respiratory depression” value [6] is listed as “dose dependent and greater than an equivalent dose of morphine”.
